Data as given in PubChem BioAssay AID2060892 (Molecular Pharmacology Branch, DTP, NCI, 2025).

System: HOP-62 complex spheroids with HUVEC/MSC, viability
Assay: Anticancer human tumor HOP-62 cell line growth inhibition [RAS];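 also: spheroids exposed to agents for seven days before readout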;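 as to viability, T/C: 100% = DMSO vehicle control viability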
Settings: for IC50: curve of first compound; for viability, T/C: stronger effect = lower value
Procedure, shortened: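 Agents were tested in combination matrices in half-log decrements from a top concentration at or near clinical Cmax (10 microM if undetermined). Targets were multi-cell spheroids of tumour lines plus HUVEC and MSC stromal cells.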

[1] = second compound 0.000949 µM, first compound 0.0316 µM
[2] = second compound 0.000949 µM, first compound 0.1 µM
[3] = second compound 0.000949 µM, first compound 0.316 µM
[4] = second compound 0.000949 µM, first compound 1 µM
[5] = second compound 0.000949 µM, first compound 3.16 µM
[6] = second compound 0.000949 µM, first compound 10 µM
[7] = second compound 0.003 µM, first compound 0.0316 µM
[8] = second compound 0.003 µM, first compound 0.1 µM
[9] = second compound 0.003 µM, first compound 0.316 µM
[10] = second compound 0.003 µM, first compound 1 µM
[11] = second compound 0.003 µM, first compound 3.16 µM
[12] = second compound 0.003 µM, first compound 10 µM
[13] = second compound 0.00949 µM, first compound 0.0316 µM
[14] = second compound 0.00949 µM, first compound 0.1 µM
[15] = second compound 0.00949 µM, first compound 0.316 µM
[16] = second compound 0.00949 µM, first compound 1 µM
[17] = second compound 0.00949 µM, first compound 3.16 µM
[18] = second compound 0.00949 µM, first compound 10 µM
[19] = second compound 0.03 µM, first compound 0.0316 µM
[20] = second compound 0.03 µM, first compound 0.1 µM
[21] = second compound 0.03 µM, first compound 0.316 µM
[22] = second compound 0.03 µM, first compound 1 µM
[23] = second compound 0.03 µM, first compound 3.16 µM
[24] = second compound 0.03 µM, first compound 10 µM
[25] = second compound 0.0949 µM, first compound 0.0316 µM
[26] = second compound 0.0949 µM, first compound 0.1 µM
[27] = second compound 0.0949 µM, first compound 0.316 µM
[28] = second compound 0.0949 µM, first compound 1 µM
[29] = second compound 0.0949 µM, first compound 3.16 µM
[30] = second compound 0.0949 µM, first compound 10 µM
[31] = second compound 0.3 µM, first compound 0.0316 µM
[32] = second compound 0.3 µM, first compound 0.1 µM
[33] = second compound 0.3 µM, first compound 0.316 µM
[34] = second compound 0.3 µM, first compound 1 µM
[35] = second compound 0.3 µM, first compound 3.16 µM
[36] = second compound 0.3 µM, first compound 10 µM

Compound `CC1(O)CCCC1n1c(=O)c(C(F)F)cc2cnc(NC3CCN(S(C)(=O)=O)CC3)nc21` (stereo not drawn) + CCn1c(-c2cc(N3CCN(C)CC3)cnc2C(C)OC)c2c3cc(ccc31)-c1csc(n1)CC(NC(=O)C1CC1C)C(=O)N1CCCC(N1)C(=O)OCC(C)(C)C2 has an IC50 (second compound 0.000949 µM) of 5050 nM, an IC50 (second compound 0.003 µM) of 3770 nM and an IC50 (second compound 0.00949 µM) of 1060 nM. For the same compound, the IC50 (second compound 0.03 µM) was less than 31.6 nM, the IC50 (second compound 0.0949 µM) was less than 31.6 nM and the IC50 (second compound 0.3 µM) was less than 31.6 nM. It also gave a viability, T/C [1] of 104%, a viability, T/C [2] of 87.2% and a viability, T/C [3] of 57.5%. The viability, T/C [4] was 80.3%, the viability, T/C [5] was 83.6% and the viability, T/C [6] was 2.49%. The viability, T/C [7] was 87.4%, the viability, T/C [8] was 65.2% and the viability, T/C [9] was 58.9%. For the same compound, the viability, T/C [10] was 62.3%, the viability, T/C [11] was 61.1% and the viability, T/C [12] was 2.49%. The viability, T/C [13] was 69.7%, the viability, T/C [14] was 53.8% and the viability, T/C [15] was 57.8%. It also gave a viability, T/C [16] of 46.5%, a viability, T/C [17] of 40.6% and a viability, T/C [18] of 2.35%. For the same compound, the viability, T/C [19] was 49.7%, the viability, T/C [20] was 44.1% and the viability, T/C [21] was 36.5%. The viability, T/C [22] was 49.3%, the viability, T/C [23] was 23.2% and the viability, T/C [24] was 2.84%. The viability, T/C [25] was 32.5%, the viability, T/C [26] was 33.9% and the viability, T/C [27] was 33.8%. It also gave a viability, T/C [28] of 37.1%, a viability, T/C [29] of 19.5% and a viability, T/C [30] of 3.11%. The viability, T/C [31] was 36.9%, the viability, T/C [32] was 34.2% and the viability, T/C [33] was 34.3%. The viability, T/C [34] was 30.9%, the viability, T/C [35] was 20.8% and the viability, T/C [36] was 3.29%.

In the case of `CCC(CC)c1cc(NC2CCC(N)C2)n2nccc2n1` (stereo not drawn) + CCn1c(-c2cc(N3CCN(C)CC3)cnc2C(C)OC)c2c3cc(ccc31)-c1csc(n1)CC(NC(=O)C1CC1C)C(=O)N1CCCC(N1)C(=O)OCC(C)(C)C2, the IC50 (second compound 0.000949 µM) is reported as 2040 nM, the IC50 (second compound 0.003 µM) is reported as 1890 nM and the IC50 (second compound 0.00949 µM) is reported as 1560 nM. The IC50 (second compound 0.03 µM) was 1270 nM, the IC50 (second compound 0.0949 µM) was 1020 nM and the IC50 (second compound 0.3 µM) was 31.6 nM. The viability, T/C [1] was 116%, the viability, T/C [2] was 125% and the viability, T/C [3] was 94.3%. The viability, T/C [4] was 128%, the viability, T/C [5] was 9.48% and the viability, T/C [6] was 1.8%. The viability, T/C [7] was 91.4%, the viability, T/C [8] was 99.2% and the viability, T/C [9] was 91.5%. For the same compound, the viability, T/C [10] was 121%, the viability, T/C [11] was 8.75% and the viability, T/C [12] was 1.01%. For the same compound, the viability, T/C [13] was 74.9%, the viability, T/C [14] was 63.3% and the viability, T/C [15] was 80%. It also gave a viability, T/C [16] of 93.5%, a viability, T/C [17] of 5.73% and a viability, T/C [18] of 0.77%. It also gave a viability, T/C [19] of 54%, a viability, T/C [20] of 56.3% and a viability, T/C [21] of 57.9%. It also gave a viability, T/C [22] of 81.2%, a viability, T/C [23] of 2.62% and a viability, T/C [24] of 0.93%. The viability, T/C [25] was 40.1%, the viability, T/C [26] was 49.5% and the viability, T/C [27] was 52.8%. For the same compound, the viability, T/C [28] was 61.5%, the viability, T/C [29] was 2.26% and the viability, T/C [30] was 2.34%. The viability, T/C [31] was 33.1%, the viability, T/C [32] was 43.1% and the viability, T/C [33] was 47.9%. It also gave a viability, T/C [34] of 50.8%, a viability, T/C [35] of 6.58% and a viability, T/C [36] of 1.42%.

For `Cc1nc(N2CCC3(CC2)COC(C)C3N)c(CO)nc1Sc1ccnc(N)c1Cl` (stereo not drawn) + CCn1c(-c2cc(N3CCN(C)CC3)cnc2C(C)OC)c2c3cc(ccc31)-c1csc(n1)CC(NC(=O)C1CC1C)C(=O)N1CCCC(N1)C(=O)OCC(C)(C)C2, the IC50 (second compound 0.000949 µM) was 1880 nM, the IC50 (second compound 0.003 µM) was 439 nM and the IC50 (second compound 0.00949 µM) was 124 nM. The IC50 (second compound 0.03 µM) was less than 31.6 nM, the IC50 (second compound 0.0949 µM) was less than 31.6 nM and the IC50 (second compound 0.3 µM) was less than 31.6 nM. The viability, T/C [1] was 110%, the viability, T/C [2] was 98.2% and the viability, T/C [3] was 50.6%. It also gave a viability, T/C [4] of 63.7%, a viability, T/C [5] of 56.7% and a viability, T/C [6] of 21.8%. For the same compound, the viability, T/C [7] was 83.8%, the viability, T/C [8] was 66.5% and the viability, T/C [9] was 47.2%. The viability, T/C [10] was 45.6%, the viability, T/C [11] was 33.1% and the viability, T/C [12] was 18.4%. The viability, T/C [13] was 71.4%, the viability, T/C [14] was 49.3% and the viability, T/C [15] was 40.6%. It also gave a viability, T/C [16] of 31.8%, a viability, T/C [17] of 24% and a viability, T/C [18] of 19%. It also gave a viability, T/C [19] of 46.5%, a viability, T/C [20] of 40.6% and a viability, T/C [21] of 36.9%. For the same compound, the viability, T/C [22] was 24.6%, the viability, T/C [23] was 16.8% and the viability, T/C [24] was 20.9%. The viability, T/C [25] was 37.9%, the viability, T/C [26] was 32.6% and the viability, T/C [27] was 27.4%. For the same compound, the viability, T/C [28] was 20.6%, the viability, T/C [29] was 13.9% and the viability, T/C [30] was 17.9%. For the same compound, the viability, T/C [31] was 37.1%, the viability, T/C [32] was 29.9% and the viability, T/C [33] was 28.8%. It also gave a viability, T/C [34] of 19.9%, a viability, T/C [35] of 18.4% and a viability, T/C [36] of 16%.

`NC1c2ccccc2OC12CCN(c1cnc3c(N4CCCc5ncccc54)n[nH]c3n1)CC2` (stereo not drawn) + CCn1c(-c2cc(N3CCN(C)CC3)cnc2C(C)OC)c2c3cc(ccc31)-c1csc(n1)CC(NC(=O)C1CC1C)C(=O)N1CCCC(N1)C(=O)OCC(C)(C)C2 was tested, and the IC50 (second compound 0.000949 µM) was 180 nM, the IC50 (second compound 0.003 µM) was 72 nM and the IC50 (second compound 0.00949 µM) was less than 31.6 nM. For the same compound, the IC50 (second compound 0.03 µM) was less than 31.6 nM, the IC50 (second compound 0.0949 µM) was less than 31.6 nM and the IC50 (second compound 0.3 µM) was less than 31.6 nM. It also gave a viability, T/C [1] of 87.9%, a viability, T/C [2] of 65.9% and a viability, T/C [3] of 33.9%. For the same compound, the viability, T/C [4] was 28.5%, the viability, T/C [5] was 28.1% and the viability, T/C [6] was 17.6%. It also gave a viability, T/C [7] of 72.5%, a viability, T/C [8] of 40.5% and a viability, T/C [9] of 25.3%. It also gave a viability, T/C [10] of 25%, a viability, T/C [11] of 17.7% and a viability, T/C [12] of 14%. It also gave a viability, T/C [13] of 47.4%, a viability, T/C [14] of 29.3% and a viability, T/C [15] of 25%. The viability, T/C [16] was 17.9%, the viability, T/C [17] was 16.5% and the viability, T/C [18] was 13.3%. It also gave a viability, T/C [19] of 42.9%, a viability, T/C [20] of 28.7% and a viability, T/C [21] of 22.4%. The viability, T/C [22] was 16.7%, the viability, T/C [23] was 11.3% and the viability, T/C [24] was 13.6%. The viability, T/C [25] was 30.5%, the viability, T/C [26] was 24.8% and the viability, T/C [27] was 18.6%. It also gave a viability, T/C [28] of 17.5%, a viability, T/C [29] of 11.2% and a viability, T/C [30] of 12.8%. For the same compound, the viability, T/C [31] was 31.9%, the viability, T/C [32] was 23.6% and the viability, T/C [33] was 18.4%. The viability, T/C [34] was 15.6%, the viability, T/C [35] was 12.5% and the viability, T/C [36] was 14.3%.
